Results taken from patent publication US11466024B2, “Bicylic compound acting as an inhibitor” (CHIA TAI TIANQING PHARMACEUTICAL GROUP CO., LTD., priority 2017, dated 2022).
Structures can show the parent of a compound that is named as a salt.

Assays:
RORC2-LBD = molecular target: T1, RORC2-LBD (Homo sapiens, UniProt P51449); experiment: In vitro test for inhibitory activity on RORγ: TR-FRET screening (RORC2-LBD / SRC1 peptide interaction); type: biochemical; details: Value of the concentration required for 50% inhibition (EC50) of RORγ, 15 nM RORc-LBD, 200 nM SRC1 peptide, 4° C. overnight
T1 sequence (P51449 269-508 limits assumed): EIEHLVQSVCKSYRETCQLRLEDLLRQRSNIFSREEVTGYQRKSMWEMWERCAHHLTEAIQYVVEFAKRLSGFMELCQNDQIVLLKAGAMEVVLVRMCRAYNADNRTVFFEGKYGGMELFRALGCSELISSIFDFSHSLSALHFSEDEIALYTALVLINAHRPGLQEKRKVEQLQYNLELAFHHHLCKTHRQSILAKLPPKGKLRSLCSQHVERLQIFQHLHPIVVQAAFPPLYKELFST
From the text: The compounds of the present application was able to regulate (inhibit) the bioactivity of the nuclear receptor RORγ, and the strength of this regulatory (inhibitory) effect could be evaluated by a TR-FRET (time-resolved fluorescence resonance energy transfer) screening system. Nuclear receptor cofactors (co-activators and co-inhibitors) could regulate the transcription of a target gene by the interaction with nuclear receptors. If a ligand (test compound) affected the interaction between the nuclear receptors and the cofactors, this ligand (test compound) was able to regulate the transcription of the corresponding gene.
This method adopted the TR-FRET (time-resolved fluorescence resonance energy transfer) technique to determine the ability of a compound to regulate the interaction between the polypeptide indirectly bound to APC […] (namely, APC was indirectly bound to the polypeptide by binding to Streptavidin and biotin) and RORC2-LBD linked to a europium (Eu)-labeled anti-His antibody (Perkin Elmer #AD0111). In the absence of the compound, RORC2 could bind to an APC-modified polypeptide. If the compound was an agonist, it could enhance the interaction between RORC2 and the APC-modified polypeptide after binding to RORC2. On the contrary, if the compound was an inverse agonist, it could inhibit the interaction between RORC2 and the APC-modified polypeptide after binding to RORC2. When the APC-modified polypeptide and the Eu-labeled anti-His antibody-RORC2-LBD complex approached to each other and the distance therebetween was within a certain distance, energy transfer could occur and a TR-FRET signal was generated.
A buffer solution comprising 50 mM Tris (pH 7.0), 50 mM KCl, 1 mM Na-EDTA, 0.01% BSA (0.1 mg/ml), and 0.1 mM DTT was freshly formulated prior to the experiment.
2.3 Formulation of a RORγ-containing working solution. Prior to the test, a working solution containing 1.67 nM Eu/anti-His and 0.75 μl/well of SF9 cell lysate was freshly formulated, and was placed on ice before use. 25.05 nM of RORγ was added to the working solution.
2.5 Ten concentration gradients were set for each test compound, and duplicate wells were set for each concentration. The formulating method of the test compounds was as follows: […]
2) 15 μl of the RORγ-containing working solution was added to columns 1 to 21 of the tested 384-well plate (the final concentration of Eu/anti-His was 1 nM, and the final concentration of RORg was 15 nM); and […]
9) data analysis was performed using the ratio of the numerical value detected at an emission wavelength of 665 nm to the numerical value detected at an emission wavelength of 615 nm. […]

[1] = tested on: MOG35-55-induced experimental autoimmune encephalomyelitis (EAE); experiment: In vivo pharmacodynamic research on MOG35-55-induced experimental autoimmune encephalomyelitis (EAE) in mice; details: G3, 0.5 mg/kg p.o. qd
Description: The day of immunization was recorded as day 0, and the subsequent days were marked sequentially. Mice were anesthetized with isoflurane, and 100 μl of the emulsion was administered via subcutaneous injection at three sites (the middle part between shoulder and back, and two sides of the tail that were close to the groin), namely, 33 μl of the emulsion for each site. 0 hour and 48 hours after the injection of the emulsion, 200 ng (i.e. 200 μl) of the PTX solution was intraperitoneal injected. Mice in the normal group were not required to be immunized.
After the immunization on day 0, the immunized mice were randomly divided into 3 groups with 10 mice in each group according to the body weights except for the mice in the normal group, the details were shown in Table 1. FTY720 served as a positive drug, and a dose of […] was an effective dose commonly used in the EAE model.
The first group was normal mice without any treatment; vehicle was administered to the second group; FTY720 was administered to the third group at a dose of 0.5 mg/kg once a day; and the compound of Example 1 was administered to the fourth group at a dose of 75 mg/kg twice a day. The administration lasted for 25 days in total. The volume of intragastric administration was 10 ml/kg.
The day when animals were immunized was day 0. Animal body weights were recorded three times a week from day 0 to day 10, and the body weights and clinical scores of the animals were closely observed and recorded daily from day 11.
The experimental data was expressed as mean±standard error of mean (Mean±SEM).
The area under the curve of clinical scores over time (i.e. “AUC of clinical scores” or “area under the curve of clinical scores”) was calculated by analyzing the curve of clinical scores for each animal in each group, and the inhibition rates of the remaining groups (G1, G3, and G4) relative to G2 (solvent control group) were calculated by the mean AUC of clinical scores among groups.

RORγ = molecular target: T2, RORγ (Homo sapiens, UniProt P51449); experiment: In vitro test for inhibitory activity on RORγ: luciferase reporter cells expressing chimeric Gal4-RORγ receptor; type: cell-based; details: Gal4 hybrid receptor luciferase reporter, HEK293, 24 hours incubation
T2 sequence (P51449 97-518): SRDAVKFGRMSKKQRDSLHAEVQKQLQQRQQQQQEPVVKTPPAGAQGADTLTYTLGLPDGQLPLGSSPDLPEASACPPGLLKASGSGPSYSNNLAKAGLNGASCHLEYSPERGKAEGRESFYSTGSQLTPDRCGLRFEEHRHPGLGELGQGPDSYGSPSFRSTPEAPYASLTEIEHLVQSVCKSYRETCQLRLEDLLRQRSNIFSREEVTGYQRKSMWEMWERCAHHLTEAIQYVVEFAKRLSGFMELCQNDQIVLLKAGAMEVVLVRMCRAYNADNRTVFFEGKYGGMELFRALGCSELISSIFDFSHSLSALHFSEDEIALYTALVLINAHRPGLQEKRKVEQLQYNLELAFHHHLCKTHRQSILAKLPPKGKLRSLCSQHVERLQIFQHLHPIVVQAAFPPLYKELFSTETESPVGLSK
Description: Reporter cells: Reporter cells expressing a chimeric RORγ receptor were used in this experiment. The chimeric RORγ receptor was a RORγ receptor formed by replacing the N-terminal DNA-binding domain of the natural RORγ protein with the DNA-binding domain of the yeast Gal4 protein. The luciferase reporter gene was located at the downstream of the Gal4 activating sequence (UAS).
Step 1: Reporter cells were prepared into a cell suspension using INDIGO's Cell Recovery Medium (CRM, containing 5% fetal bovine serum treated by activated carbon). The cell suspension was dispensed into a white 96-well culture plate in a volume of 100 μl/well.
Step 2: Eight concentration gradients were set for each test compound, and the test was conducted twice at each concentration. Prior to the experiment, the main stock solution of the test compound was serially diluted with DMSO, so as to formulate solutions with “1000×-concentration” relative to each of the final test concentrations. Subsequently, the compound was further diluted with the cell recovery medium (CRM, containing 5% fetal bovine serum treated by activated carbon), so as to formulate test working solutions with “2×-concentration”. As per a volume of 100 μl/well, the test working solutions were respectively added to the test wells in which the reporter cells were added in advance, so as to obtain the desired final test concentrations. The residual concentrations of DMSO in all test wells were 0.1%. The test plate was incubated in a cell incubator for 24 hours. Conditions of the incubator were set as follows: temperature: 37° C., 5% CO2, humidity: ˜85%.
Step 3: After 24 hours of incubation, the liquid in the culture plate was discarded, 100 μl of luciferase detection reagent was added to each test well, and then, the fluorescence intensity (Relative Luminescence Units, RLUs) in each well was read.
In this test, the reference compound ursolic acid was used as an internal standard of a positive compound to verify the inhibitory effect of the test compound on RORγ in reporter cells of a specific batch. The tests for the reference compound and the test compound were performed simultaneously, and the reference compound and the test compound were thus exposed to the same test reagent and environment. The reference compound group containing 0.1% DMSO as solvent was used as an internal standard of a positive compound, so as to determine the effect of the solvent DMSO on the test results and calculate the percentage reduction in RORγ activity.
The test data was managed and archived by Microsoft Excel, and mean±standard deviation (SD) of RLU, fold of reduction, inhibition rate, coefficient of variation (% CV) and Z factor were calculated. Coefficient of variation (% CV): 100×(SD/Ave. RLU); Fold of reduction for inverse agonist: [Ave. […]

[2] = tested on: imiquimod-induced psoriasis; experiment: In vivo pharmacodynamic study in imiquimod (IMQ)-induced psoriasis model in mice; parameters: species or system C57BL/6 mice; key to Clinical scores (Mean ± SEM, n = 8): 0 = no disease, 1 mild, 2 moderate, 3 severe, 4 very severe; details: 5 mg/kg, ig
Description: 6- to 8-week old female C57BL/6 mice were selected, depilated on the backs, and sensitized two days later except for the sham operation group. On the day of sensitization, the mice were randomly divided into the following 6 groups (8 mice per group). Group I was a sham operation group; Group II was a vehicle control group and PBS was administered; Group III was a positive control group and 5 mg/kg methotrexate was administered; Groups IV, V and VI were ip treatment group, ig treatment group, and topical treatment group of the compound of Example 1, and 75 mg/kg of the compound of Example 1 was administered via intraperitoneal injection, intragastric administration, and dorsal application, respectively. Administration was started on the day of sensitization, once daily for Group III and twice daily for Groups IV to VI. On the day of sensitization, the mice in Groups II to VI were given 60 to 80 mg of imiquimod cream (5%) on the dorsal skin for 4 consecutive days. (Please refer to Bouchaud, G., et al., Epidermal IL-15Ralpha acts as an endogenous antagonist of psoriasiform inflammation in mouse and man. J. Exp. Med., 2013. 210(10): p. 2105-17.)
The mice were weighed daily from the day of sensitization, and the skin scales, induration, and erythema were observed and scored according to a four-grade scoring method: 0 point, no disease; 1 point, mild; 2 points, moderate; 3 points, severe; and 4 points, very severe. (Please refer to Qin, S., et al., Endogenous n-3 polyunsaturated fatty acids protect against imiquimod-induced psoriasis-like inflammation via the IL-17/IL-23 axis. Mol Med Rep, 2014. 9(6): p. 2097-104.)

## CCS(=O)(=O)c1ccc(CNC(=O)c2cc3c(s2)C(C(C)C)N(Cc2ccc(C(F)(F)F)cc2)C3)nc1 (stereo not shown) [Example 9]
RORC2-LBD
  EC50: < 100 nM

## CCS(=O)(=O)c1ccc(CNC(=O)c2cc3c(s2)C(C(C)C)N(CC2CCC(C(F)(F)F)CC2)C3=O)nc1 (single isomer, unassigned) [Example 4]
RORC2-LBD
  EC50: 1000 to 5000 nM

## CCCCCCCCc1ccc(CCC(N)(CO)CO)cc1 [FTY720, fingolimod hydrochloride, reference compound]
[1]; 25 days, FIG. 2
  inhibition rate of AUC of clinical scores relative to solvent control group: 100%
[1]; from the beginning to end, FIG. 3
  morbidity of EAE: 0
[1]; significantly different from solvent control group, FIG. 4
  body weight changes: kept increasing

## CCS(=O)(=O)c1ccc(CNC(=O)c2cc3c(s2)C(C(C)C)N(CC2CCC(C(F)(F)F)CC2)C3=O)nc1 (single isomer, unassigned) [Example 3]
RORC2-LBD
  EC50: 100 to 500 nM
RORγ; Specific value of the concentration required for 50% inhibition (EC50) of RORγ
  EC50: 147 nM
RORγ; Value of the concentration required for 50% Inhibition (EC50) of RORγ
  EC50: 100 to 500 nM

## CN(Cc1cnc2nc(N)nc(N)c2n1)c1ccc(C(=O)N[C@@H](CCC(=O)O)C(=O)O)cc1 [Methotrexate, reference compound]
[2]; Day 1
  Clinical scores (Mean ± SEM, n = 8): 0 ± 0
[2]; Day 2
  Clinical scores (Mean ± SEM, n = 8): 0.19 ± 0.13
[2]; Day 3
  Clinical scores (Mean ± SEM, n = 8): 0.50 ± 0.13
[2]; Day 4
  Clinical scores (Mean ± SEM, n = 8): 0.88 ± 0.25
[2]; Day 5
  Clinical scores (Mean ± SEM, n = 8): 0.93 ± 0.23
